Reference: patent US11371077B2, “High throughput cell-based screening for aptamers” (MeiraGTx UK II Limited, priority 2016, dated 2022)
Where a name gives a salt, the structure may show the parent alone. Read-outs that look alike come from different tables or passages of the source. Where a SMILES comes first, the peptide text is derived from it. [ ]: non-standard residue; d: D form. The star is where a group is joined. Sta = CC(C)C[C@H](N)[C@@H](O)CC(=O)O; Isovaleryl = CC(C)CC(=O)*

What was measured:
Assay type in all cases: cell-based
gdg6-G8 riboswitch = assay: Luciferase reporter assay, gdg6-G8 riboswitch, transfected HEK 293 cells; conditions: for fold induction at 100 µM: Homo sapiens, HEK293, gdg6-G8 riboswitch, Prestwick library compounds at 100 μM, HEK 293
Text: (§1) Riboswitches were constructed as described in PCT/US2016/016234 (in particular Examples 3 to 6), incorporated herein by reference. A truncated human beta-globin intron sequence was synthesized and inserted in the coding sequence of a firefly luciferase gene. A mutant human DHFR exon 2 was synthesized and inserted in the middle of this truncated beta-globin intron sequence using Golden gate cloning strategy. Aptamers including xpt-G/A^1, ydhl-G/A^2, yxj^3, add^4, gdg6-G/A^5 (citations for the aptamers are incorporated herein by reference) were synthesized as oligonucleotides (“oligos”) with 4 nucleotide overhang at the 5′ end that are complementary to two different BsaI sites individually (IDT), annealed and ligated to BsaI-digested mDHFR-Luci-acceptor vector.
(§2) 3.5×10^4 HEK 293 cells were plated in a 96-well flat bottom plate the day before transfection. Plasmid DNA (500 ng) was added to a tube or a 96-well U-bottom plate. Separately, TransIT-293 reagent (Mirus; 1.4 μL) was added to 50 μL Opti-mem I media (Life Technologies), and allowed to sit for 5 minutes at room temperature (RT). Then, 50 μL of this diluted transfection reagent was added to the DNA, mixed, and incubated at RT for 20 min. Finally, 7 μL of this solution was added to a well of cells in the 96-well plate.
(§3) 24 hours after media change, plates were removed from the incubator, and equilibrated to RT for several minutes on a lab bench, then aspirated. Glo-lysis buffer (Promega, 100 μL, RT) was added, and the plates maintained at RT for at least 5 minutes. Then, the well contents were mixed by 50 μL trituration, and 20 μL of each sample was mixed with 20 μL of bright-glo reagent (Promega) that had been diluted to 10% in glo-lysis buffer. 96 wells were spaced on an opaque white 384-well plate. Following a 5 min incubation at RT, luminescence was measured using a Tecan machine with 500 mSec read time. The luciferase activity was expressed as mean relative light unit (RLU)±S.D., and fold induction was calculated as the luciferase activity obtained with guanine treatment divided by luciferase activity obtained without guanine treatment.

ydhl-G8 riboswitch = assay: Luciferase reporter assay, ydhl-G8 riboswitch, transfected HEK 293 cells; conditions: for fold induction at 100 µM: Homo sapiens
Text: (§4) A truncated human beta-globin intron sequence was synthesized and inserted in the coding sequence of a firefly luciferase gene. A mutant human DHFR exon 2 was synthesized and inserted in the middle of this truncated beta-globin intron sequence using Golden gate cloning strategy. Aptamers including xpt-G/A^1, ydhl-G/A^2, yxj^3, add^4, gdg6-G/A^5 (citations for the aptamers are incorporated herein by reference) were synthesized as oligonucleotides (“oligos”) with 4 nucleotide overhang at the 5′ end that are complementary to two different BsaI sites individually (IDT), annealed and ligated to BsaI-digested mDHFR-Luci-acceptor vector.
as §2, with “Separately, TransIT-293 reagent (Mirus; 1.4 μL) was added to 50 μL Opti-mem I media (Life Technologies), and allowed to sit for 5 minutes at room temperature (RT).” left out
as §3

add-G6 riboswitch = assay: cells; conditions: for fold induction at 100 µM: Homo sapiens
Text: as §4
as §2, with “Separately, TransIT-293 reagent (Mirus; 1.4 μL) was added to 50 μL Opti-mem I media (Life Technologies), and allowed to sit for 5 minutes at room temperature (RT).” left out
as §3, with “The luciferase activity was expressed as mean relative light unit (RLU)±S.D., and fold induction was calculated as the luciferase activity obtained with guanine treatment divided by luciferase activity obtained without guanine treatment.” left out

yxj-A6 riboswitch = assay: cells; conditions: for fold induction at 100 µM: Homo sapiens
Text: as §4, §2
as §3, with “The luciferase activity was expressed as mean relative light unit (RLU)±S.D., and fold induction was calculated as the luciferase activity obtained with guanine treatment divided by luciferase activity obtained without guanine treatment.” left out

gdg6-A8 riboswitch = assay: Luciferase reporter assay, gdg6-A8 riboswitch, transfected HEK 293 cells; conditions: for fold induction at 100 µM: Homo sapiens, HEK293, gdg6-A8 riboswitch, Prestwick library compounds at 100 μM, HEK 293
Text: as §1, §2, §3

xpt-A8 riboswitch = assay: cells; conditions: Homo sapiens
Text: as §1, §2, §3

add-A6 riboswitch = assay: cells; conditions: for fold induction at 100 µM: Homo sapiens
Text: as §1, §2, §3

xpt-G17 riboswitch = assay: Luciferase reporter assay, xpt-G17 riboswitch, transfected HEK 293 cells; conditions: Prestwick library compounds at 100 μM, HEK 293, preliminary screen; for fold induction at 100 µM: Homo sapiens, HEK293, xpt-G17 riboswitch
Text: as §4, §2, §3

ydhl-A6 riboswitch = assay: Luciferase reporter assay, ydhl-A6 riboswitch, transfected HEK 293 cells; conditions: for fold induction at 100 µM: Homo sapiens
Text: as §4
as §2, with “Separately, TransIT-293 reagent (Mirus; 1.4 μL) was added to 50 μL Opti-mem I media (Life Technologies), and allowed to sit for 5 minutes at room temperature (RT).” left out
as §3

[1] = HEK293, read-out: Fold Induction of luciferase activity
[2] = HEK293, add-G6 riboswitch, Prestwick library compounds at 100 μM, HEK 293, read-out: Fold Induction of luciferase activity
[3] = HEK293, yxj-A6 riboswitch, Prestwick library compounds at 100 μM, HEK 293, read-out: Fold Induction of luciferase activity
[4] = HEK293, xpt-A8 riboswitch, Prestwick library compounds at 100 μM, HEK 293, read-out: Fold Induction of luciferase activity
[5] = HEK293, add-A6 riboswitch, Prestwick library compounds at 100 μM, HEK 293, read-out: Fold Induction of luciferase activity
[6] = HEK293, read-out: Fold Induction of luciferase activity, ydhl-A6 riboswitch, Prestwick library compounds at 100 μM, HEK 293
[7] = add-A6 riboswitch, Prestwick library compounds at 100 μM, HEK 293

S=c1nc[nH]c2nc[nH]c12 [Mercaptopurine]
fold induction at 100 µM (gdg6-G8 riboswitch): 16.2
fold induction at 100 µM (ydhl-G8 riboswitch; [1]): 3.6
fold induction at 100 µM (add-G6 riboswitch; [2]): 14.3
fold induction at 100 µM (yxj-A6 riboswitch; [3]): 10
fold induction at 100 µM (gdg6-A8 riboswitch): 17.2
fold induction at 100 µM (xpt-A8 riboswitch; [4]): 3.4
fold induction at 100 µM (add-A6 riboswitch; [5]): 15

CN(C)CCCN1c2ccccc2Sc2ccccc21 [Promazine hydrochloride]
fold induction at 100 µM (gdg6-G8 riboswitch): 6.2
fold induction at 100 µM (ydhl-G8 riboswitch; HEK293, ydhl-G8 riboswitch, Prestwick library compounds at 100 μM, HEK 293, read-out: Fold Induction of luciferase activity): 5.2
fold induction at 100 µM (add-G6 riboswitch; [1]): 5.4
fold induction at 100 µM (yxj-A6 riboswitch; [1]): 6.6
fold induction at 100 µM (xpt-G17 riboswitch): 3.7
fold induction at 100 µM (gdg6-A8 riboswitch): 12.6
fold induction at 100 µM (xpt-A8 riboswitch; [1]): 4.1
fold induction at 100 µM (add-A6 riboswitch; [1]): 10.5

COc1cc2nc(N3CCN(C(=O)C4CCCO4)CC3)nc(N)c2cc1OC (stereo not drawn) [Terazosin hydrochloride]
fold induction at 100 µM (add-A6 riboswitch; [5]): 3.5

CN1CCC(=C2c3ccccc3Sc3ccccc32)CC1 [Pimethixene maleate]
fold induction at 100 µM (gdg6-G8 riboswitch): 5.1
fold induction at 100 µM (add-G6 riboswitch; [2]): 6.6
fold induction at 100 µM (yxj-A6 riboswitch; [3]): 4.9
fold induction at 100 µM (xpt-G17 riboswitch): 4.7
fold induction at 100 µM (gdg6-A8 riboswitch): 9.2
fold induction at 100 µM (xpt-A8 riboswitch; [4]): 3.3
fold induction at 100 µM (add-A6 riboswitch; [5]): 4.2

CNC1(C)C2CCC(C2)C1(C)C (stereo not drawn) [Mecamylamine hydrochloride]
fold induction at 100 µM (ydhl-A6 riboswitch; [6]): 3.2

Clc1ccccc1CN1CCc2sccc2C1 [Ticlopidine hydrochloride]
fold induction at 100 µM (ydhl-A6 riboswitch; HEK293, ydhl-A6 riboswitch, Prestwick library compounds at 100 μM, HEK 293, read-out: Fold Induction of luciferase activity): 3.1

C=CC[N@@+]12CC[C@@]34c5ccccc5N5/C=C6/[C@H]7C[C@H]8[C@@]9(CC[N@@+]8(CC=C)C/C7=C/CO)c7ccccc7N(/C=C(/[C@@H](C[C@@H]31)/C(=C\CO)C2)[C@H]54)[C@@H]69.[Cl-].[Cl-] [Alcuronium chloride]
Fold Induction of luciferase activity (add-A6 riboswitch; [7]): 4.2 fold

CCOC(=O)Nc1ccc2c(c1)N(C(=O)CCN1CCOCC1)c1ccccc1S2 [Moricizine hydrochloride]
fold induction at 100 µM (ydhl-A6 riboswitch; [1]): 10.3

Cn1cnc([N+](=O)[O-])c1Sc1ncnc2nc[nH]c12 [Azathioprine]
fold induction at 100 µM (gdg6-G8 riboswitch): 16.2
fold induction at 100 µM (add-G6 riboswitch; [2]): 11.4
fold induction at 100 µM (yxj-A6 riboswitch; [3]): 6.6
fold induction at 100 µM (xpt-G17 riboswitch): 6.2
fold induction at 100 µM (gdg6-A8 riboswitch): 19.9
fold induction at 100 µM (xpt-A8 riboswitch; [4]): 5.9
fold induction at 100 µM (add-A6 riboswitch; [5]): 6.5

CC(C)CC(=O)N[C@H](C(=O)N[C@H](C(=O)N[C@@H](CC(C)C)[C@@H](O)CC(=O)N[C@@H](C)C(=O)N[C@@H](CC(C)C)[C@@H](O)CC(=O)O)C(C)C)C(C)C [Pepstatin A] (Isovaleryl-VV[Sta]A[Sta]-OH)
Fold Induction of luciferase activity (ydhl-A6 riboswitch; ydhl-A6 riboswitch, Prestwick library compounds at 100 μM, HEK 293): 4.0 fold

NS(=O)(=O)c1cc2c(cc1Cl)NCNS2(=O)=O [Hydrochlorothiazide]
fold induction at 100 µM (ydhl-A6 riboswitch; [6]): 3.3

Trimeprazine tartrate
Fold Induction of luciferase activity (gdg6-G8 riboswitch; 100 µM): 6.2 fold
Fold Induction of luciferase activity (ydhl-G8 riboswitch; ydhl-G8 riboswitch, Prestwick library compounds at 100 μM, HEK 293): 5.0 fold
Fold Induction of luciferase activity (add-G6 riboswitch; add-G6 riboswitch, Prestwick library compounds at 100 μM, HEK 293): 6.2 fold
Fold Induction of luciferase activity (yxj-A6 riboswitch; yxj-A6 riboswitch, Prestwick library compounds at 100 μM, HEK 293): 7.0 fold
Fold Induction of luciferase activity (xpt-G17 riboswitch; xpt-G17 riboswitch): 4.9 fold
Fold Induction of luciferase activity (gdg6-A8 riboswitch; 100 µM): 8.7 fold
Fold Induction of luciferase activity (add-A6 riboswitch; [7]): 4.0 fold

Nc1ccc(S(=O)(=O)Nc2cnc3ccccc3n2)cc1 [Sulfaquinoxaline sodium]
fold induction at 100 µM (yxj-A6 riboswitch; [3]): 3.4
fold induction at 100 µM (add-A6 riboswitch; [5]): 3.3
